Test results taken from patent publication US5650154A (priority 1989, dated 1997).

System: polyclonal serum raised against the native antigen
Assay: Reaction of peptide with polyclonal serum raised against the native antigen
Type: binding, rabbits
Details: rabbit serum

## ELVALSNSITAQQMAMMAZASPA [Peptide (b), Tryptic peptide of the H. contortus antigen purified by HPLC]
  reaction with polyclonal serum raised against the native antigen: reacts strongly
